Measurements from patent publication US6914045B2, “Glycopeptide antibiotics” (Wyeth Holdings Corporation, priority 2001, dated 2005).
In brackets after ≈: the same amount, converted by molar mass.

Assays:
Escherichia coli = experiment: in vitro antibacterial evaluation, MIC by broth dilution; format: cell-based
Outline: (§1)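 Inoculum 5×10^5 CFU/mL; concentrations 64 to 0.06 μg/mL; MIC defined as lowest inhibitory level. Conducted by broth dilution under NCCLS guidelines.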

Streptococcus sp. = experiment: as above; format: cell-based; details: broth dilution, 18 hours at 35° C.
Outline: as §1

Staphylococcus sp. = experiment: as above; format: cell-based; details: broth dilution, 18 hours at 35° C.; for MIC Staphylococcus aureus (GC 1131): strain GC 1131
Outline: as §1

Enterococcus sp. = experiment: as above; format: cell-based; details: broth dilution, 18 hours at 35° C.; for MIC Enterococcus faecalis (ATCC 29212): strain ATCC 29212; for MIC Enterococcus faecium (GC 2243): strain GC 2243; for MIC Enterococcus faecalis (GC 4552): strain GC 4552; for MIC Enterococcus faecalis (GC 4553): strain GC 4553; for MIC Enterococcus faecalis (GC 4554): strain GC 4554; for MIC Enterococcus faecium (GC 4556): strain GC 4556; for MIC Enterococcus faecium (GC 4557): strain GC 4557; for MIC Enterococcus avium (GC 4558): strain GC 4558; for MIC Enterococcus faecalis (GC 6189): strain GC 6189
Outline: as §1

[1] = tested on: Staphylococcus aureus-SMITH (GC 4543); experiment: acute lethal infection in mice; format: in vivo; details: acute lethal infection, female CD-1 mice, intraperitoneal challenge, intravenous 30 min. after infection, 7 day survival
Outline: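 Survival at 7 days, pooled from three independent tests, yields ED50 values. Treatment is intravenous, 30 min after ip infection of female CD-1 mice, using an inoculum lethal to untreated controls within 24-48 hr.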

CC(c1ccccc1)C1NC(=O)CNC(=O)C(CO)NC(=O)C(C(O)C2CNC(=N)N2C2OC(CO)C(O)C(O)C2O)NC(=O)C(C(O)C2CNC(=N)N2)NC(=O)C(Cc2ccc(OC3OC(CO)C(OC4OC5COC(c6cccc(-c7ccccc7)c6)OC5C(O)C4O)C(O)C3O)cc2)NC1=O (stereo not drawn) [Example 154, Cyclo[glycyl-β-methylphenylalanyl-O-[4-O-[4,6-O-(3-phenylbenzylidene)hexopyranosyl]-hexopyranosyl]tyrosyl-3-(2-iminoimidazolidin-4-yl)seryl-3-(3-hexopyranosyl-2-iminoimidazolidin-4-yl)serylseryl]]
MIC Escherichia coli (ATCC 25922) (Escherichia coli; strain ATCC 25922, 18 hours at 35° C.): 32 µg/mL (≈ 21.9 µM) | MIC Escherichia coli (GC 4559) (Escherichia coli; strain GC 4559, 18 hours at 35° C.): 32 µg/mL (≈ 21.9 µM) | MIC Escherichia coli (GC 4560) (Escherichia coli; strain GC 4560, 18 hours at 35° C.): 2 µg/mL (≈ 1.37 µM) | MIC Streptococcus agalactiae (GC 4564) (Streptococcus sp.; Streptococcus agalactiae (GC 4564)): <0.06 µg/mL | MIC Streptococcus pneumoniae (ATCC 6301) (Streptococcus sp.; Streptococcus pneumoniae (ATCC 6301)): <0.06 µg/mL | MIC Streptococcus pneumoniae (GC 1894) (Streptococcus sp.; Streptococcus pneumoniae (GC 1894)): <0.06 µg/mL | MIC Streptococcus pneumoniae (GC 4565) (Streptococcus sp.; Streptococcus pneumoniae (GC 4565)): <0.06 µg/mL | MIC Streptococcus pyogenes (GC 4563) (Streptococcus sp.; Streptococcus pyogenes (GC 4563)): <0.06 µg/mL | MIC Streptococcus pneumoniae (ATCC 6301) (Streptococcus sp.; strain ATCC 6301): <0.06 µg/mL | MIC Streptococcus pneumoniae (GC 1894) (Streptococcus sp.; strain GC 1894): <0.06 µg/mL | MIC Streptococcus pyogenes (GC 4563) (Streptococcus sp.; strain GC 4563): <0.06 µg/mL | MIC Streptococcus agalactiae (GC 4564) (Streptococcus sp.; strain GC 4564): <0.06 µg/mL | MIC Streptococcus pneumoniae (GC 4565) (Streptococcus sp.; strain GC 4565): <0.06 µg/mL | MIC Staphylococcus aureus (GC 1131) (Staphylococcus sp.; inoculum 5×10^5 CFU/mL): 1 µg/mL (≈ 0.685 µM) | MIC Staphylococcus aureus (ATCC 29213) (Staphylococcus sp.; strain ATCC 29213): 1 µg/mL (≈ 0.685 µM) | MIC Staphylococcus aureus (GC 1131) (Staphylococcus sp.): 1 µg/mL (≈ 0.685 µM) | MIC Staphylococcus aureus (GC 3051) (Staphylococcus sp.; strain GC 3051): 1 µg/mL (≈ 0.685 µM) | MIC Staphylococcus aureus (GC 3053) (Staphylococcus sp.; strain GC 3053): 2 µg/mL (≈ 1.37 µM) | MIC Staphylococcus aureus (GC 4541) (Staphylococcus sp.; strain GC 4541): 1 µg/mL (≈ 0.685 µM) | MIC Staphylococcus aureus (GC 4542) (Staphylococcus sp.; strain GC 4542): 1 µg/mL (≈ 0.685 µM) | MIC Staphylococcus aureus-SMITH (GC 4543) (Staphylococcus sp.; strain GC 4543): 1 µg/mL (≈ 0.685 µM) | MIC Staphylococcus aureus (GC 4544) (Staphylococcus sp.; strain GC 4544): 2 µg/mL (≈ 1.37 µM) | MIC Staphylococcus aureus (GC 4545) (Staphylococcus sp.; strain GC 4545): 1 µg/mL (≈ 0.685 µM) | MIC Staphylococcus haemolyticus (GC 4546) (Staphylococcus sp.; strain GC 4546): 1 µg/mL (≈ 0.685 µM) | MIC Coagulase Negative Staphylococcus (GC 4547) (Staphylococcus sp.; strain GC 4547): 2 µg/mL (≈ 1.37 µM) | MIC Coagulase Negative Staphylococcus (GC 4548) (Staphylococcus sp.; strain GC 4548): 0.5 µg/mL (≈ 0.343 µM) | MIC Coagulase Negative Staphylococcus (GC 4549) (Staphylococcus sp.; strain GC 4549): 0.25 µg/mL (≈ 0.171 µM) | MIC Coagulase Negative Staphylococcus (GC 4551) (Staphylococcus sp.; strain GC 4551): 2 µg/mL (≈ 1.37 µM) | MIC Coagulase Negative Staphylococcus (GC 6257) (Staphylococcus sp.; strain GC 6257): 1 µg/mL (≈ 0.685 µM) | MIC Staphylococcus aureus-SMITH (GC 4543) (Staphylococcus sp.; strain SMITH GC 4543): 1 µg/mL (≈ 0.685 µM) | MIC Enterococcus faecalis (GC 2242) (Enterococcus sp.; Enterococcus faecalis (GC 2242)): 2 µg/mL (≈ 1.37 µM) | MIC Enterococcus faecalis (GC 2691) (Enterococcus sp.; Enterococcus faecalis (GC 2691)): 2 µg/mL (≈ 1.37 µM) | MIC Enterococcus faecalis (GC 3059) (Enterococcus sp.; Enterococcus faecalis (GC 3059)): 2 µg/mL (≈ 1.37 µM) | MIC Enterococcus faecalis (ATCC 29212) (Enterococcus sp.; inoculum 5×10^5 CFU/mL): 2 µg/mL (≈ 1.37 µM) | MIC Enterococcus faecium (GC 2243) (Enterococcus sp.; inoculum 5×10^5 CFU/mL): 2 µg/mL (≈ 1.37 µM) | MIC Enterococcus faecalis (GC 4552) (Enterococcus sp.; inoculum 5×10^5 CFU/mL): 2 µg/mL (≈ 1.37 µM) | MIC Enterococcus faecalis (GC 4553) (Enterococcus sp.; inoculum 5×10^5 CFU/mL): 2 µg/mL (≈ 1.37 µM) | MIC Enterococcus faecalis (GC 4554) (Enterococcus sp.; inoculum 5×10^5 CFU/mL): 2 µg/mL (≈ 1.37 µM) | MIC Enterococcus faecium (GC 4556) (Enterococcus sp.; inoculum 5×10^5 CFU/mL): 2 µg/mL (≈ 1.37 µM) | MIC Enterococcus faecium (GC 4557) (Enterococcus sp.; inoculum 5×10^5 CFU/mL): 2 µg/mL (≈ 1.37 µM) | MIC Enterococcus avium (GC 4558) (Enterococcus sp.; inoculum 5×10^5 CFU/mL): 1 µg/mL (≈ 0.685 µM) | MIC Enterococcus faecalis (GC 6189) (Enterococcus sp.; inoculum 5×10^5 CFU/mL): 2 µg/mL (≈ 1.37 µM) | MIC Enterococcus faecalis (ATCC 29212) (Enterococcus sp.): 2 µg/mL (≈ 1.37 µM) | MIC Enterococcus faecalis (GC 2242) (Enterococcus sp.; strain GC 2242): 2 µg/mL (≈ 1.37 µM) | MIC Enterococcus faecium (GC 2243) (Enterococcus sp.): 2 µg/mL (≈ 1.37 µM) | MIC Enterococcus faecalis (GC 2691) (Enterococcus sp.; strain GC 2691): 2 µg/mL (≈ 1.37 µM) | MIC Enterococcus faecalis (GC 3059) (Enterococcus sp.; strain GC 3059): 2 µg/mL (≈ 1.37 µM) | MIC Enterococcus faecalis (GC 4552) (Enterococcus sp.): 2 µg/mL (≈ 1.37 µM) | MIC Enterococcus faecalis (GC 4553) (Enterococcus sp.): 2 µg/mL (≈ 1.37 µM) | MIC Enterococcus faecalis (GC 4554) (Enterococcus sp.): 2 µg/mL (≈ 1.37 µM) | MIC Enterococcus faecium (GC 4556) (Enterococcus sp.): 2 µg/mL (≈ 1.37 µM) | MIC Enterococcus faecium (GC 4557) (Enterococcus sp.): 2 µg/mL (≈ 1.37 µM) | MIC Enterococcus avium (GC 4558) (Enterococcus sp.): 1 µg/mL (≈ 0.685 µM) | MIC Enterococcus faecalis (GC 6189) (Enterococcus sp.): 2 µg/mL (≈ 1.37 µM) | median effective dose (ED50), Staphylococcus aureus-SMITH (GC 4543) [1]: 0.1 mg/kg
